Test system: MCF-7 cells
Test: CD44+ CD24− CSC population in MCF-7 tumoroids by flow cytometry
Format: cell-based, human
Conditions: regular growth medium supplemented with 50 μM cobalt chloride, first-generation MCF-7 tumoroids, day 6
Description: We first plated MCF-7 cells in regular growth medium, consisting of RPMI-1640 supplemented with 10% fetal bovine serum (FBS) and 1× penicillin-streptomycin. The cells were plated at ^˜7,000 cells per scaffold in a 96-well cell culture plate. Fresh medium was added on the second day post-seeding and on day 6 post-seeding, the tumoroids were visualized using NucBlue® dye. After confirming the presence of healthy looking tumoroids, they were detached from the scaffold and processed for single cell suspensions using accutase:citrate solution (1:1 ratio). The single cell suspension was then counted for viability and stained with human anti-CD44-APC-cy7 and anti-CD24-APC. DAPI was used to differentiate the live cells within the single cell population and the CD44^+ CD24^− cell population was determined from the live cells using flow cytometry.
We first grew first-generation tumoroids, as described before. The first-generation tumoroids were then processed for single-cell suspensions and plated at ^˜8,000 cells per scaffold in a 96-well cell culture plate. […]
Because hypoxia appears to be required for the maintenance of CSCs, we wanted to test this in our 3D model using cobalt chloride, a known inducer of hypoxia. […] DAPI was used to differentiate the live cells within the single-cell population and the CD44^+ CD24^− cell population was determined using flow cytometry. […]

In the case of [Cl][Co][Cl] [cobalt chloride], the “change in percentage of CSCs” value is reported as “did not change the percentage of CSCs”.

Reference: patent US20190292524A1, “METHODS FOR CANCER STEM CELL (CSC) EXPANSION” (TRANSGENEX NANOBIOTECH, INC., priority 2016, published 2019)
